Results reported in US20190302102A1, “COMBINATION THERAPIES FOR TREATING BIPOLAR DISORDER, AND METHODS FOR USING THE SAME” (PsychNostics, LLC, priority 2016, published 2019).

What was measured:
[1] = test system: whole blood cells from BD patients; assay: MPR™ (Membrane Potential Ratio) test, agents added to the test buffer in vitro; type: cell-based, human; conditions: 1 mM Li alone in EtOH test buffer, whole blood of BD patients
Method: The present inventor developed a ratiometric assay to measure the ratio of the membrane potential called Membrane Potential Ratio (MPR™), using a reference buffer and a test buffer. […] The reference buffer may contain NaCl, CaCl2 and glucose at physiological concentrations. The buffering agent HEPES was also added to the buffer to maintain the pH. […] The test buffer may contain K^+ or no K^+. The membrane potentials were measured in both the buffers and the ratio of the MP in the test buffer to the MP in the reference buffer was designated the “Membrane Potential Ratio” (MPR™).
The membrane potentials of whole blood cells can be measured using two different buffers in a plate reader. The mean MPR™ value is the ratio between the membrane potential of a patient's cells in the test buffer as the numerator and that in the reference buffer as the denominator (for example, determined by statistical analysis of multiple measurements, using the ANOVA and the multiple statistical regression analysis).
As mentioned herein, MPR™ is the ratio between the membrane potential (MP) in the test buffer and that in the reference buffer. In these experiments, the reference buffer contained NaCl, CaCl2, glucose and HEPES, whereas the test buffer contained ethyl alcohol (EtOH) in addition to NaCl, CaCl2, glucose and HEPES. Lithium, inositol and carbachol were added to the test buffer in these experiments.
Whole blood samples were obtained from BD patients, and a portion from each blood sample was suspended in the test buffer for 20 minutes, and a portion from each blood sample was suspended in the reference buffer for 20 minutes. After this incubation, the samples were centrifuged for five minutes, drained, then re-suspended in their respective buffer (test or reference buffer). These samples were then distributed in 96 well plates, and tested in a plate reader (FLx 800 manufactured by BioTek).

[2] = test system: BD patients; conditions: cited from earlier work
[3] = blood plasma; Freudenreich et al. 2009; cited from earlier work
[4] = test system: BD patient; assay: Clinical case observation of tolerability (Example 4); type: in vivo, human; conditions: very low dosage, given for anxiety; person with BD
Text: At the time of their first blood draw, they reported having been off of their medications for BD for one month, but had not become clinically symptomatic, and tested in the BD range (“(Before)” of FIG. 4). When retested, they had been taking lithium, quetiapine, and mirtazapine for some time and had been back at work. […] Subsequently, they reported anxiety, occurring while they continued taking lithium, quetiapine, and mirtazapine. They thought they might be experiencing a return of bipolar symptomatology, but this was determined to possibly be situational instead. They had some awareness of issues with their fiancé and this awareness was “bolstered” by the notion that their MPR™ test had been in the normal range on their medication regimen not so many months before. […] They wanted a medication to help their through what they were experiencing, but could not be given benzodiazepines because of a history of difficulty with alcohol. Very low dosage perphenazine was given, in keeping with its old indication for neurotic anxiety.

In the case of `[Li]` [Li, lithium], the “MPR™ value” ([1]; Example 1, FIG. 1) is reported as 0.814, the “MPR™ value” ([1]; Example 2, FIG. 2) is reported as 0.757 and the “MPR™ value” ([1]; Example 3, FIG. 3) is reported as 0.780. The “side effects at the therapeutic level” value ([2]; at therapeutic concentration of 1.2 mM) was “nausea, diarrhea, dizziness, muscle weakness, fatigue, and a dazed feeling”, the therapeutic level ([2]; lithium level in BD therapy) was “around 1.2 mM” and the toxic level ([2]; lithium level in BD therapy) was “about 2 mM”.

For `CN1CCN(C2=Nc3cc(Cl)ccc3Nc3ccccc32)CC1` [clozapine], the “presently used therapeutic levels” value [3] is given as 200 to 1000 ng/mL.

With `OCCN1CCN(CCCN2c3ccccc3Sc3ccc(Cl)cc32)CC1` [perphenazine] the “Side effect leading to discontinuation” value [4] was “blurred vision”.
